According to article PMC10892818, “An Antiherpesviral Host-Directed Strategy Based on CDK7 Covalently Binding Drugs: Target-Selective, Picomolar-Dose, Cross-Virus Reactivity” (Pharmaceutics, 2024):
Where two headings read alike, the source gives them in different places.

What was measured:
[1] = system: HCMV UL97-H520Q; parameters: method as in PMID 31940472; key: R-high, high-level drug resistance; R-int, intermediate-level drug resistance; R-low, low-level drug resistance; S, drug sensitivity; details: cited from earlier work
[2] = system: HCMV UL97-H411Y; assay: HCMV reporter-based antiviral assay, drug-resistant mutant; assay type: cell-based, human cytomegalovirus; details: Human betaherpesvirus 5, read-out: Measured EC50 ref. drugs UL97-H411Y
Experimental: (§1) For the infection experiments, stocks of the following recombinant, reporter protein-expressing viruses (GFP or YFP (i.e., green or yellow fluorescent protein, respectively)) were propagated (in permissive cells), determined in their infectious titers performing the respective reporter assays, stored by aliquots at −80 °C, and used for the assessment of antiviral drug activities: human cytomegalovirus HCMV AD169-GFP (HFFs); murine cytomegalovirus MCMV C3X-GFP (MEFs); guinea pig cytomegalovirus GPCMV v403-GFP (GPEFs); human herpesvirus type 6A HHV-6A U1102-GFP (J-Jhan); herpes simplex virus type 1 HSV-1 166v VP22-GFP (HFFs); varicella zoster virus VZV Oka-GFP (HFFs); Epstein-Barr virus EBV Akata-GFP (Akata-BX1-GFP carrier cells; kindly provided by Lindsey Hutt-Fletcher and Rona Scott, Dept. Microbiol. Immunol., LSUHSC Univ., Shreveport, LA, USA); and Kaposi’s sarcoma-associated herpesvirus KSHV rKSHV.219-GFP/RFP (in iSLK.219 carrier cells).
(§2) For HCMV AD169-GFP infection, the replication assay was based on a seeding of 225,000 HFFs or 13,500 HFFs in 12 well or 96 well plates, respectively, which were then inoculated with HCMV AD169-GFP [55] at an MOI of 0.25 GFP-FU/mL/7 d for a 90 min period of inoculum–cell adsorption, followed by a medium refreshment including the immediate addition of antiviral compounds. At 7 d p.i., the infected HFFs were either directly fixed with 10% formalin for 20 min at 4 °C (when used for infection in the 96 well format) or lysed and transferred to 96 well plates (when used for infection in the 12 well format) so that the reporter of viral replication could be quantified by GFP fluorometry using a Perkin Elmer Victor X4 Multimode Plate Reader (Perkin Elmer, Waltham, MA, USA).
(§3) Due to the fact that the HCMV-encoded protein kinase pUL97 represents a functional and structural ortholog of the host CDKs (vCDK/pUL97), the viral mutants of ORF-UL97 were assessed for sensitivity against CDK7 inhibitors.

[3] = system: HCMV UL97-C592G; assay: as above; assay type: cell-based, human cytomegalovirus; details: Human betaherpesvirus 5, read-out: Measured EC50 ref. drugs UL97-C592G
Experimental: as §1, §2, §3

[4] = system: HCMV UL97-H469V; assay: as above; assay type: cell-based, human cytomegalovirus; details: Human betaherpesvirus 5, read-out: Measured EC50 ref. drugs UL97-H469V
Experimental: as §1, §2, §3

[5] = system: HCMV UL97-C480F; assay: as above; assay type: cell-based, human cytomegalovirus; details: Human betaherpesvirus 5, read-out: Measured EC50 ref. drugs UL97-C480F
Experimental: as §1, §2, §3

[6] = system: HCMV UL97-M460I; parameters: method as in PMID 31940472; key: R-high, high-level drug resistance; R-int, intermediate-level drug resistance; R-low, low-level drug resistance; S, drug sensitivity; details: cited from earlier work
[7] = system: VZV Oka-GFP; assay: microbe, parasite or virus in culture; assay type: cell-based, varicella zoster virus; details: for EC50: Human alphaherpesvirus 3, 96 h
Text: The virus recombinants VZV Oka-GFP and rKSHV.219-GFP/RFP were used for the infection of HFFs (virus stock VZV Oka-GFP applied as a cell-bound inoculum as described before) or were continuously passaged in iSLK.219 carrier cells, respectively (Figure 1). The conditions of the GFP/RFP-based assays were adapted to both the 96 well (Figure 1A,B) and 12 well formats, and details including the assessment of antiviral reference drugs are given (Figure 1C,D).
The virus recombinants VZV Oka-GFP and rKSHV.219-GFP/RFP were used for the infection of HFFs (VZV) or were continuously passaged in iSLK.219 carrier cells (KSHV), respectively, and cell viability was determined by NRA performed with uninfected HFFs or uninduced iSLK.219 cells, respectively. (A,B) Schematic depiction of the assay systems performed in a 96 well plate format. […] For the VZV-GFP system, virus stock VZV Oka-GFP was applied as a cell-bound infectious inoculum. After a 90 min period of inoculum adsorption to the cell surfaces, antiviral compounds were added to the culture media at serial dilutions (DMSO served as a solvent control for drug treatment of infected cells, while mock-infected cells served as a negative control). For the KSHV-GFP/RFP system, iSLK.219 cell lytic replication of KSHV (RFP reporter signal) was induced by the addition of 0.05 or 0.5 µg/mL doxycycline (dox) to the culture media. Cultivated dox-induced iSLK.219 cells were treated with antiviral compounds added at serial dilutions (DMSO served as a positive infection solvent control, while dox-untreated mock cells served as a negative control). HFFs or iSLK.219 cells were harvested at 4 d p.i. or 1 d after treatment, respectively, fixed by a 10 min incubation with 10% formalin, washed with PBS, and used for quantitation of the GFP or RFP reporter signal by PicoMD counting (ImageXpress® Pico device, Molecular Devices LLC, San Jose, CA, USA), with data evaluation using CellReporterXpress® software (version 2.9.3.1183, Molecular Devices LLC) as described earlier in [63]. (C) The antiviral activity of the reference drugs was determined with the VZV-GFP system in the 96 well format. EC50 values refer to measurements in quadruplicate, and the mean values ± SD of two experimental replicates are given. (D) The antiviral activity of the reference drugs was determined with the KSHV-GFP/RFP system in the 96 well format. EC50 values refer to measurements in triplicate, and the mean values ± SD are given for each of the two depicted experimental replicates.

[8] = system: HCMV UL97-C603W; parameters: method as in PMID 31940472; key: R-high, high-level drug resistance; R-int, intermediate-level drug resistance; R-low, low-level drug resistance; S, drug sensitivity; details: cited from earlier work
[9] = system: HCMV UL97-H411Y; parameters: method as in PMID 31940472; key: R-high, high-level drug resistance; R-int, intermediate-level drug resistance; R-low, low-level drug resistance; S, drug sensitivity; details: cited from earlier work
[10] = system: HCMV UL97-C592G; parameters: method as in PMID 31940472; key: R-high, high-level drug resistance; R-int, intermediate-level drug resistance; R-low, low-level drug resistance; S, drug sensitivity; details: cited from earlier work
[11] = read-out: VZV EC50 (first experimental replicate)
[12] = read-out: VZV EC50 (second experimental replicate)

## Nc1ccn(C[C@@H](CO)OCP(=O)(O)O)c(=O)n1 [CDV, cidofovir]
[1]
  Reported phenotype UL97-H520Q: S
[2]
  EC50: 420 nM
[3]
  EC50: 400 nM
[4]
  EC50: 180 nM
[5]
  EC50: 400 nM
[6]
  Reported phenotype UL97-M460I: S
[7]; 96 well format
  SI (VZV-GFP system): > 323
[7]; [11]
  EC50: 300 ± 100 nM
[7]; [12]
  EC50: 300 ± 200 nM
[8]
  Reported phenotype UL97-C603W: S
[9]
  Reported phenotype UL97-H411Y: S
[10]
  Reported phenotype UL97-C592G: S

## Nc1nc(O)c2ncn(COC(CO)CO)c2n1 [GCV, ganciclovir]
[1]
  Reported phenotype UL97-H520Q: R-high
[2]
  EC50: 3760 ± 600 nM
[3]
  EC50: 4670 ± 1100 nM
[4]
  EC50: 1220 ± 200 nM
[5]
  EC50: 10500 ± 2200 nM
[6]
  Reported phenotype UL97-M460I: R-high
[7]; [11]
  EC50: 1000 ± 800 nM
[7]; [12]
  EC50: 2900 ± 2700 nM
[8]
  Reported phenotype UL97-C603W: R-high
[9]
  Reported phenotype UL97-H411Y: R-low
[10]
  Reported phenotype UL97-C592G: R-int
